Results as given in patent publication US6096930A, “Herbicidal cyclohexane-1,3-dione derivatives and their preparation process” (Korea Research Institute of Chemical Technology, priority 1994, dated 2000).
Where two headings read alike, the source gives them in different places.

Tests used:
Assay in all cases: Herbicidal activity for paddy test
Assay type in all cases: in vivo
ECHOR = test system: ECHOR
In short: (§1)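 Visual percent-control rating: 0 = no herbicidal effect, 100 = complete kill. Plants grown in furrows, sterilized sandy loam, 115 cm^2 pots (paddy conditions).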

ORYSA = conditions: for plant injury at 2 g/ha: 0.002 kg/ha; for plant injury at 8 g/ha: 0.008 kg/ha; for plant injury at 31 g/ha: 0.031 kg/ha; for plant injury at 125 g/ha: 0.125 kg/ha; for plant injury at 500 g/ha: 0.500 kg/ha
In short: as §1

SCPJU = test system: SCPJU
In short: as §1

MOOVA = test system: MOOVA
In short: as §1

SAGPY = test system: SAGPY
In short: as §1

[1] = 3 Leaf, read-out: Herbicidal activity, ORYSA (3 Leaf)
[2] = seed, read-out: Herbicidal activity, ORYSA (seed)

CCC(=NOC)C1=C(O)CC(c2c(C)c3c(c(C)c2Cl)CC(C)(C)C3)CC1=O (stereo not drawn) [Compound 21]
60%: pest or weed control at 125 g/ha (MOOVA; 0.125 kg/ha)
30%: pest or weed control at 8 g/ha (MOOVA; 0.008 kg/ha)
40%: pest or weed control at 2 g/ha (ECHOR; 0.002 kg/ha)
95%: pest or weed control at 8 g/ha (ECHOR; 0.008 kg/ha)
0%: plant injury at 2 g/ha (ORYSA; [1]) | plant injury at 8 g/ha (ORYSA; [1]) | plant injury at 31 g/ha (ORYSA; [1]) | pest or weed control at 2 g/ha (SCPJU; 0.002 kg/ha) | pest or weed control at 8 g/ha (SCPJU; 0.008 kg/ha) | pest or weed control at 31 g/ha (SCPJU; 0.031 kg/ha) | pest or weed control at 125 g/ha (SCPJU; 0.125 kg/ha) | pest or weed control at 500 g/ha (SCPJU; 0.500 kg/ha) | pest or weed control at 2 g/ha (MOOVA; 0.002 kg/ha) | pest or weed control at 2 g/ha (SAGPY; 0.002 kg/ha) | pest or weed control at 8 g/ha (SAGPY; 0.008 kg/ha) | pest or weed control at 31 g/ha (SAGPY; 0.031 kg/ha) | pest or weed control at 125 g/ha (SAGPY; 0.125 kg/ha) | pest or weed control at 500 g/ha (SAGPY; 0.500 kg/ha)
100%: pest or weed control at 31 g/ha (ECHOR; 0.031 kg/ha) | pest or weed control at 125 g/ha (ECHOR; 0.125 kg/ha) | pest or weed control at 500 g/ha (ECHOR; 0.500 kg/ha) | plant injury at 500 g/ha (ORYSA; [1]) | plant injury at 8 g/ha (ORYSA; [2]) | plant injury at 31 g/ha (ORYSA; [2]) | plant injury at 125 g/ha (ORYSA; [2]) | plant injury at 500 g/ha (ORYSA; [2])
80%: plant injury at 125 g/ha (ORYSA; [1])
50%: pest or weed control at 31 g/ha (MOOVA; 0.031 kg/ha)
70%: pest or weed control at 500 g/ha (MOOVA; 0.500 kg/ha)
20%: plant injury at 2 g/ha (ORYSA; [2])
